Source: US20150368248A1, “2-SUBSTITUTED-6-BIARYLMETHYLAMINO-9-CYCLOPENTYL-9H-PURINE DERIVATIVES, USE THEREOF AS MEDICAMENTS, AND PHARMACEUTICAL COMPOSITIONS” (UNIVERZITA PALACKEHO V OLOMOUCI, priority 2013, published 2015)

What was measured:
[1] = biological target: T1, CDK1/cyclin B (Homo sapiens, UniProt P06493); experiment: Kinase inhibition assay, recombinant kinase, [γ-33P]ATP; format: biochemical; conditions: read-out: Kinase inhibition IC50, CDK1
T1 construct: made in house; host or cells: Sf9 insect cells (baculovirus)
T1 sequence (P06493 whole entry, species assumed): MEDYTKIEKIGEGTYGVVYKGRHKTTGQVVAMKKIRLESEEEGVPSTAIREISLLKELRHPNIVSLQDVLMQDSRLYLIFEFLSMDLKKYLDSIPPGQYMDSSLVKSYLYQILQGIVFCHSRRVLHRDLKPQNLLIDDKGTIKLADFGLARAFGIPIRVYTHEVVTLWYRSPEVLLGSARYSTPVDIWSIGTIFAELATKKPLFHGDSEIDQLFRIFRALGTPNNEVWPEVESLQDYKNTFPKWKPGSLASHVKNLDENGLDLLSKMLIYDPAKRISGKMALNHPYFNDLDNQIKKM
T1 sequence (P14635 whole entry partner, species assumed): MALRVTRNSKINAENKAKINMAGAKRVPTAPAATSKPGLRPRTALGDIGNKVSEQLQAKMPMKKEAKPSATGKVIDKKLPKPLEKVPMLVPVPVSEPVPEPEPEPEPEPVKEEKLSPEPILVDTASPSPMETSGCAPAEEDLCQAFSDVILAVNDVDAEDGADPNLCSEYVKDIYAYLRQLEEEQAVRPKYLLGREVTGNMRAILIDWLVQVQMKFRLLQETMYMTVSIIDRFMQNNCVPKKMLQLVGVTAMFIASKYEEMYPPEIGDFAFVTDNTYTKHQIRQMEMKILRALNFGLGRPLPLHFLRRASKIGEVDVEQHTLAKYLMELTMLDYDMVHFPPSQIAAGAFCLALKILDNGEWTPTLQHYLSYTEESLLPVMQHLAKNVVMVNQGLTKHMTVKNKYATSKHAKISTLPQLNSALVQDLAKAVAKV
Description: CDK2/Cyclin E kinase was produced in Sf9 insect cells via baculoviral infection and purified on a NiNTA column (Qiagen). CDK5/p35, CDK7Cyclin H/MAT1 and CDK9/Cyclin T1 was purchased from ProQinase GmbH. […] The reactions were stopped by adding 5 μL of 3% aq H3PO4. Aliquots were spotted onto P-81 phosphocellulose (Whatman), washed 3× with 0.5% aq H3PO4 and finally air-dried.
CDK1/cyclin B and CDK2/cyclin E kinases were produced in Sf9 insect cells via baculoviral infection, while CDK5/p35, CDK7/cyclin H/MAT1, and CDK9/cyclin T1 were purchased from ProQinase (Freiburg, Germany) and assayed as described previously (35). The kinase reactions were assayed with 1 mg/ml histone H1 (for CDK2 and CDK5) or (YSPTSPS)2KK peptide (for CDK7 and CDK9) in the presence of 15/0.15/1.5/1.5 […] ATP (for CDK2/CDK5/CDK7CDK9), […] [γ-^33P]ATP and of the test compound in a final volume of […]. The reaction buffer contained 60 mM HEPES-NaOH, pH 7.5, 3 mM MgCl2, 3 mM MnCl2, 3 mM Na-orthovanadate, 1.2 mM DTT, 2.5 mg/50 ml PEG20.000. The reactions were stopped by adding […] of 3% H3PO4. Aliquots were spotted onto P-81 phosphocellulose (Whatman, GE Healthcare Biosciences, Pittsburgh, USA), washed 3 times with 0.5% H3PO4 and finally air-dried. Kinase inhibition was quantified using a FLA-7000 digital image analyzer (Fujifilm, Tokyo, Japan).

[2] = test system: Hep3B; experiment: MTT cytotoxicity assay (Example 30); format: cell-based, human; conditions: Homo sapiens, Hep3B, 72 h; MTT, three days after drug addition; read-out: Inhibitory concentration IC50, Hep3B
[3] = test system: caspase-3/7 activity in PLC/PRF/5 cell line; experiment: One-step cellular caspase-3/7 activity assay; format: cell-based, human; conditions: 24 hours incubation, relative to 0 nM = 1.00
Procedure, shortened: (§1)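 Hep3B or PLC/PRF/5 cells, plated overnight, were exposed to compounds for 24 h. Lysis buffer containing 150 μM Ac-DEVD-AMC substrate was added, and plates were incubated at 37° C. Caspase-3/7 activity was read as AMC fluorescence (ex 346/em 442 nm) after 6 h.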

[4] = test system: caspase-3/7 activity in Hep3B cell line; experiment: One-step cellular caspase-3/7 activity assay; format: cell-based, human; conditions: 24 hours, 0 nM = 1.00
Procedure, shortened: as §1

[5] = test system: HUH-7; experiment: MTT cytotoxicity assay (Example 30); format: cell-based; conditions: Homo sapiens, Huh-7, 72 h; MTT, three days after drug addition; read-out: Inhibitory concentration IC50, HUH-7
[6] = test system: HCC-1.1 (3sp); experiment: MTT cytotoxicity assay (Example 30); format: cell-based; conditions: Homo sapiens, 72 h; MTT, three days after drug addition; read-out: Inhibitory concentration IC50, 3sp
[7] = test system: PLC/PRF/5; experiment: MTT cytotoxicity assay (Example 30); format: cell-based; conditions: Homo sapiens, PLC-PRF-5, 72 h; MTT, three days after drug addition; read-out: Inhibitory concentration IC50, PLC/PRF/5
[8] = test system: HCC-1.2 (3p); experiment: MTT cytotoxicity assay (Example 30); format: cell-based; conditions: Homo sapiens, HCC-1.2, 72 h; MTT, three days after drug addition; read-out: Inhibitory concentration IC50, 3p

Compound	IC50 [1]	IC50 [2]	melting point	Relative caspase-3/7 activity in PLC/PRF/5 cell line ([3]; compound concentration 40 nM)	Relative caspase-3/7 activity in PLC/PRF/5 cell line ([3]; compound concentration 80 nM)	Relative caspase-3/7 activity in PLC/PRF/5 cell line ([3]; compound concentration 160 nM)	Relative caspase-3/7 activity in PLC/PRF/5 cell line ([3]; compound concentration 320 nM)	Relative caspase-3/7 activity in PLC/PRF/5 cell line ([3]; compound concentration 640 nM)	Relative caspase-3/7 activity in PLC/PRF/5 cell line ([3]; compound concentration 1280 nM)	Relative caspase-3/7 activity in Hep3B cell line ([4]; 200 nM)	Relative caspase-3/7 activity in Hep3B cell line ([4]; 400 nM)	Relative caspase-3/7 activity in Hep3B cell line ([4]; 800 nM)	Relative caspase-3/7 activity in Hep3B cell line ([4]; 1600 nM)	IC50 [5]	IC50 [6]	IC50 [7]	IC50 [8]	Relative caspase-3/7 activity in Hep3B cell line ([4]; 100 nM)
COc1ccccc1-c1ccc(CNc2nc(NC3CCC(N)CC3)nc3c2ncn3C2CCCC2)cc1 (stereo not drawn) [BP16, N^2-(4-amino-cyclohexyl)-9-cyclopentyl-N^6-(2′-methoxy-biphenyl-4-ylmethyl)-9H-purine-2,6-diamine]	301 nM	532 nM	178 to 180 °C	1.01	0.73	1.15	2.42	>5.00	>5.00	0.93	1.26	2.82	7.07	363 nM	767 nM	129 nM	580 nM	–
COc1ccccc1-c1ccc(CNc2nc(NC3CCC(N)CC3)nc3c2ncn3C2CCCC2)cn1 (stereo not drawn) [BP18, N^2-(4-amino-cyclohexyl)-9-cyclopentyl-N^6-[6-(2-methoxy-phenyl)-pyridin-3-ylmethyl]-9H-purine-2,6-diamine]	118 nM	233 nM	184 to 186 °C	0.97	2.40	>5.00	>5.00	>5.00	>5.00	0.89	3.19	6.05	8.59	618 nM	791 nM	22 nM	791 nM	–
NC1CCC(Nc2nc(NCc3ccc(-c4cccc(F)c4)nc3)c3ncn(C4CCCC4)c3n2)CC1 (stereo not drawn) [BP19, N^2-(4-amino-cyclohexyl)-9-cyclopentyl-N^6-[6-(3-fluoro-phenyl)-pyridin-3-ylmethyl]-9H-purine-2,6-diamine]	77 nM	85 nM	121 to 122 °C	1.78	2.39	>5.00	>5.00	>5.00	>5.00	4.82	6.60	9.80	9.45	281 nM	410 nM	9 nM	191 nM	0.90
NC1CCC(Nc2nc(NCc3ccc(-c4ccccc4O)nc3)c3ncn(C4CCCC4)c3n2)CC1 (stereo not drawn) [BP20, N^2-(4-amino-cyclohexyl)-9-cyclopentyl-N^6-[6-(2-hydroxy-phenyl)-pyridin-3-ylmethyl]-9H-purine-2,6-diamine]	47 nM	32 nM	202 to 203 °C	3.15	2.66	>5.00	>5.00	>5.00	>5.00	5.37	8.25	9.63	9.95	182 nM	197 nM	7 nM	132 nM	4.42
OC1CCC(Nc2nc(NCc3ccc(-c4ccco4)nc3)c3ncn(C4CCCC4)c3n2)CC1 (stereo not drawn) [BP21, 4-{9-cyclopentyl-6-[(6-furan-2-yl-pyridin-3-ylmethyl)-amino]-9H-purine-2-ylamino}-cyklohexanol]	215 nM	487 nM	164 to 166 °C	0.69	1.20	2.19	3.39	>5.00	>5.00	1.15	1.18	4.36	7.19	155 nM	408 nM	46 nM	167 nM	–
Nc1ccccc1-c1ccc(CNc2nc(NC3CCC(N)CC3)nc3c2ncn3C2CCCC2)cn1 (stereo not drawn) [BP22, N^2-(4-amino-cyclohexyl)-9-cyclopentyl-N^6-[6-(2-amino-phenyl)-pyridin-3-ylmethyl]-9H-purine-2,6-diamine]	100 nM	487 nM	173 to 175 °C	–	–	0.72	1.08	1.92	3.50	0.81	0.80	0.81	1.18	642 nM	516 nM	280 nM	436 nM	–
NC1CCC(Nc2nc(NCc3ccc(-n4cccn4)cc3)c3ncn(C4CCCC4)c3n2)CC1 (stereo not drawn) [BP24, N^2-(4-amino-cyclohexyl)-9-cyclopentyl-N^6-(4-pyrazol-1-yl-benzyl)-9H-purine-2,6-diamine]	58 nM	115 nM	186 to 187 °C	2.01	2.59	>5.00	>5.00	>5.00	>5.00	6.18	6.81	9.80	9.65	177 nM	339 nM	12 nM	169 nM	1.98
NC1CCC(Nc2nc(NCc3ccc(-c4cccs4)nc3)c3ncn(C4CCCC4)c3n2)CC1 (stereo not drawn) [BP30, N^2-(4-amino-cyclohexyl)-9-cyclopentyl-N^6-(6-thiophen-2-yl-pyridin-3-ylmethyl)-9H-purine-2,6-diamine]	49 nM	77 nM	151 to 153 °C	2.46	3.93	>5.00	>5.00	>5.00	>5.00	5.32	8.08	9.00	9.43	184 nM	476 nM	15 nM	205 nM	2.99
